This assay has as its target T1, human PAD4 (Homo sapiens, UniProt Q9UM07).
T1 construct: human PAD4 (NM_012387), A2-P663, was PCR amplified; His-SUMO (N, cleaved yes); made in house; host or cells: E. coli BL21(DE3)
Kind of assay: In vitro PAD4 BAEE biochemical assay. As to conditions: BAEE substrate 3 mM, 5 nM PAD4, 2 mM calcium chloride; geometric mean of multiple experiments. An outline of the steps:
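Fluorescence read-out (ex 405/em 535 nm) of isoindole formed from ammonia, o-phthalaldehyde and DTT after EDTA stop. Reaction: 5 nM PAD4, 2 mM CaCl2, 3 mM BAEE, 2 h, 25 °C, after 30 min enzyme–compound preincubation. Normalised to BB-Cl-Amidine (50 µM) and DMSO controls.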

Molecules are shown by their SMILES.

T1 sequence (Q9UM07 2-663): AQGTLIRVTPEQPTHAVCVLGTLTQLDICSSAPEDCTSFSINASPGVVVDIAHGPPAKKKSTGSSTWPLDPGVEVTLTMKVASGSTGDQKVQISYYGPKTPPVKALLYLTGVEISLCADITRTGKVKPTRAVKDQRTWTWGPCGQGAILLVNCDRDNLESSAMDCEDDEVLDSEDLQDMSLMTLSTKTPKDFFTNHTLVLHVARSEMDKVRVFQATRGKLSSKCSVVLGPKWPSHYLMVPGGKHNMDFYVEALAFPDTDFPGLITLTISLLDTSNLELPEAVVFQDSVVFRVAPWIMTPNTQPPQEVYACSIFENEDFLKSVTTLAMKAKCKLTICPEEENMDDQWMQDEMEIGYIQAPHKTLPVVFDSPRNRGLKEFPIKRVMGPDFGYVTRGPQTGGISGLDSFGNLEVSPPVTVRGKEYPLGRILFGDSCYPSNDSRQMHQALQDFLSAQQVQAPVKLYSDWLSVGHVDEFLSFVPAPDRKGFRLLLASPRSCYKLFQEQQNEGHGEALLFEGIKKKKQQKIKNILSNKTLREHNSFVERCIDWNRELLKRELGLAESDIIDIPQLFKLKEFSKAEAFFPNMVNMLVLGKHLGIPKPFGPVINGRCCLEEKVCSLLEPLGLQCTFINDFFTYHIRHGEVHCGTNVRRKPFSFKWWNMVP

`C[C@H]1NC(=O)[C@@H]2C[C@@]2(F)CCCCCn2c(-c3nc4cc(C(=O)N5C[C@H](N)[C@@H]6CC[C@H]5C6)cc(F)c4n3C)cc3ccc1nc32` [Example 717, (2~{R},5~{S},7~{S})-14-[5-[(1~{S},4~{R},5~{R})-4-amino-2-azabicyclo[3.2.1]octane-2-carbonyl]-7-fluoro-1-methyl-benzimidazol-2-yl]-7-fluoro-2-methyl-3,13,19-triazatetracyclo [11.5.2.0^{5,7}.0^{16,20}] icosa-1(19),14,16(20), 17-tetraen-4-one]: the IC50 (usually the concentration that inhibits the measured activity by half) was determined as 11 nM.
Next, `COc1cc(C(=O)N2CC[C@@H](OC)[C@@H](N)C2)cc2nc(-c3cc4ccc5nc4n3CC(F)(F)CCC[C@@H]3C[C@H]3C(=O)N(CC(F)F)[C@@H]5C)n(C)c12` [Example 867, (2~{R},5~{R},7~{R})-14-[5-[(3~{S},4~{R})-3-amino-4-methoxy-piperidine-1-carbonyl]-7-methoxy-1-methyl-benzimidazol-2-yl]-3-(2,2-difluoroethyl)-11,11-difluoro-2-methyl-3,13,19-triazatetracyclo[11.5.2.0^ {5,7).0^{16,20}]icosa-1(19),14,16(20),17-tetraen-4-one]: 44 nM.
As for `COc1cc(C(=O)N2CC[C@@H](OC)[C@@H](N)C2)cc2nc(-c3cc4ccc5cc4n3CCCCCc3nccnc3C(=O)N[C@@H]5C)n(C)c12` [Example 576, (2~{R})-17-[5-[(3~{S},4~ {R})-3-amino-4-methoxy-piperidine-1-carbonyl]-7-methoxy-1-methyl-benzimidazol-2-yl]-2-methyl-3,6,9,16-tetrazatetracyclo[14.5.2.0^ {5,10}.0^{19,23}] tricosa-1(22),5(10),6,8,17, 19(23),20-heptaen-4-one], the IC50 worked out at 68 nM.
Then `CCc1c(-c2cc3ccc4nc3n2CCCCCCCC(=O)N[C@@H]4C)nn2cc(C(=O)N3[C@H]4CC[C@@H]3[C@H](N)C4)ccc12` [Example 252, 17-[5-[(1˜{R},2˜{R},4˜{S})-2-amino-7-azabicyclo[2.2.1]heptane-7-carbonyl]-3-ethylpyrazolo[1,5-a]pyridin-2-yl]-11-methyl-1,10,19-triazatricyclo[10.5.2.0^{15,18}]nonadeca-12(19),13,15(18),16-tetraen-9-one], with 45 nM; and `C[C@H]1NC(=O)[C@@H]2C[C@H]2CC(F)(F)CCCn2c(-c3nc4cc(C(=O)N5C[C@H](N)[C@@H]6CC[C@H]5C6)cc(F)c4n3C3CC3)cc3ccc1nc32` [Example 881, (2~{R},5~{R},7~{S})-14-[5-[(1~{S},4~{R},5~{R})-4-amino-2-azabicyclo [3.2.1]octane-2-carbonyl]-1-cyclopropyl-7-fluoro-benzimidazol-2-yl]-9,9-difluoro-2-methyl-3,13,19-triazatetracyclo [11.5.2.0^{5,7}.0^{16,20}] icosa-1(19),14,16(20), 17-tetraen-4-one], with 24 nM.
For the compound `C[C@H]1NC(=O)c2ccc(Cl)nc2CCCCCn2c(-c3nc4cc(C(=O)N5C[C@H](N)[C@@H]6CC[C@H]5C6)cc(F)c4n3[C@@H]3C[C@@H]3F)cc3ccc1nc32` [Example 452, (2~{R})-17-[(1~{R})-5-[(1~{S},4~{R},5~{R})-4-amino-2-azabicyclo[3.2.1]octane-2-carbonyl]-7-fluoro-1-[(2~{S})-2-fluorocyclopropyl]benzimidazol-2-yl]-8-chloro-2-methyl-3,9,16,22-tetrazatetracyclo[14.5.2.0^{5,10).0^{19,23}] tricosa-1(22),5(10),6,8,17,19(23),20-heptaen-4-one], the IC50 was 37 nM.
As for `COc1cc(C(=O)N2[C@H]3CC[C@@H]2[C@H](N)C3)cc2nc(-c3cc4ccc5nc4n3CCCCCC(=O)Nc3ncccc3-5)n(C)c12` [Example 92, 16-[5-[(1~{R},2~{R},4~{S})-2-amino-7-azabicyclo[2.2.1]heptane-7-carbonyl]-7-methoxy-1-methyl-benzimidazol-2-yl]-6,8,15,21-tetrazatetracyclo[13.5.2.0^{2,7}.0^{18,22}] docosa-1(21),2(7),3,5,16,18(22),19-heptaen-9-one], the IC50 turned out to be 175 nM.
Next, `COc1cc(C(=O)N2C[C@H](N)[C@@H]3CC[C@H]2C3)cc2nc(-c3cc4ccc5nc4n3CC(F)(F)CCC[C@@H]3C[C@@]3(C)C(=O)N[C@@H]5C)n(C3CC3)c12` [Example 924, (2~{R},5~{R},7~{R})-14-[5-[(1~{S),4~{R},5~{R})-4-amino-2-azabicyclo[3.2.1]octane-2-carbonyl]-1-cyclopropyl-7-methoxy-benzimidazol-2-yl]-11,11-difluoro-2,5-dimethyl-3,13,19-triazatetracyclo [11.5.2.0^{5,7}.0^{16,20}] icosa-1(19),14,16(20), 17-tetraen-4-one]: 46 nM; `COc1cc(C(=O)N2[C@H]3CC[C@@H]2[C@H](N)C3)cc2nc(-c3cc4ccc5nc4n3CCCCC[C@H](OC)C(C)(C)C(=O)N[C@@H]5C)n(C)c12` [Example 220, (7~{S),11~{R})-17-[5-[(1~{R},2~{R},4~{S})-2-amino-7-azabicyclo[2.2.1]heptane-7-carbonyl]-7-methoxy-1-methyl-benzimidazol-2-yl]-7-methoxy-8,8,11-trimethyl-1,10,19-triazatricyclo[10.5.2.0^{15,18}]nonadeca-12(19),13,15(18),16-tetraen-9-one]: 49 nM.
Then `COc1cc(C(=O)N2CCC[C@@H](N)C2)cc2nc(-c3cc4ccc5nc4n3CCCCCC[C@H](C)C(=O)N[C@@H]5C)n(C)c12` [Example 111, (8~{S},11~{R})-17-[5-[(3~{R})-3-aminopiperidine-1-carbonyl]-7-methoxy-1-methyl-benzimidazol-2-yl]-8,11-dimethyl-1,10,19-triazatricyclo[10.5.2.0^{15,18}]nonadeca-12(19),13,15(18),16-tetraen-9-one], with 49 nM.
As to `COc1cc(C(=O)N2CCC[C@@H](N)C2)cc2nc(-c3cc4ccc5cc4n3CCCCCCC(C)(C)C(=O)Nc3ncccc3-5)n(C)c12` [Example 53, 18-[5-[(3~{R})-3-aminopiperidine-1-carbonyl]-7-methoxy-1-methyl-benzimidazol-2-yl]-10,10-dimethyl-6,8,17-triazatetracyclo[15.5.2.0^{2,7}.0^{20,24}] tetracosa-1(23),2,4,6,18,20(24),21-heptaen-9-one], the IC50 is 283 nM.
Next, `COc1cc(C(=O)N2C[C@H](N)[C@@H]3CC[C@H]2C3)cc2nc(-c3cc4ccc5nc4n3CCCCCc3cc(Cl)ccc3C(=O)N[C@@H]5C)n(C)c12` [Example 901, (2~{R})-17-[5-[(1~{S),4~{R}, 5~{R})-4-amino-2-azabicyclo [3.2.1]octane-2-carbonyl]-7-methoxy-1-methyl-benzimidazol-2-yl]-8-chloro-2-methyl-3,16,22-triazatetracyclo [14.5.2.0^{5,10}.0^{19,23}] tricosa-1(22),5(10),6,8,17, 19(23),20-heptaen-4-one]: 59 nM; `COc1cc(C(=O)N2CC3(CCCCNC3)C2)cc2nc(-c3cc4ccc5nc4n3CC(F)(F)CCC[C@@H]3C[C@H]3C(=O)N[C@@H]5C)n(C)c12` [Example 632, (2~{R},5~{R},7~{R})-14-[5-(2,9-diazaspiro[3.6]decane-2-carbonyl)-7-methoxy-1-methyl-benzimidazol-2-yl]-11,11-difluoro-2-methyl-3,13,19-triazatetracyclo [11.5.2.0^{5,7}.0^{16,20}] icosa-1(19),14,16(20), 17-tetraen-4-one]: 46 nM.

Source of the values: patent publication US11976083B2, “Inhibitors of peptidylarginine deiminases” (Gilead Sciences, Inc., priority 2020, dated 2024).
